Legend:
Format in all cases: in vivo, broiler cross chicks
[1] = Growth promotion in chicks, Example XII first set (Table VI); settings: for Average 4 Week Performance: Feed Efficiency / Average 4 Week Performance: Gain / Improved Response Over Basal Ration: Feed Efficiency / Improved Response Over Basal Ration: Gain: 25 g/T in basal ration, 4 weeks; for growth rate / feed efficiency, production parameters (in words): 25 g/T, first set of tests
Description: This example compares growth promotion activity of the product of Example I with other growth promotants at a concentration of 25 g/T in the Basal Ration described in Example VII. The other growth promotants include the product described in Example I of U.S. Pat. No. 3,542,784 -- Burch and quinoxaline-1,4-dioxide. Day old broiler cross chicks were weight equalized into groups of eight chicks each, and four replicates of eight chicks each were fed the experimental rations over a 4 week period. […]

[2] = Growth promotion in chicks, Example XII repeat (Table VII); settings: for Average 4 Week Performance: Feed Efficiency / Average 4 Week Performance: Gain / Improved Response Over Basal Ration: Feed Efficiency / Improved Response Over Basal Ration: Gain: 25 g/T in basal ration, 4 weeks
Description: (§1) This example compares growth promotion activity of the product of Example I with other growth promotants at a concentration of 25 g/T in the Basal Ration described in Example VII. The other growth promotants include the product described in Example I of U.S. Pat. No. 3,542,784 -- Burch and quinoxaline-1,4-dioxide. Day old broiler cross chicks were weight equalized into groups of eight chicks each, and four replicates of eight chicks each were fed the experimental rations over a 4 week period.
The growth promotion tests described in Example X were repeated with the additional testing the products of Examples II and III.

[3] = Growth promotion and feed efficiency in chicks, Example VII (Table I); settings: for Average 4 Week Performance: Feed Efficiency / Average 4 Week Performance: Gain / Improved Response Over Basal Ration + Bacitracin: Feed Efficiency / Improved Response Over Basal Ration + Bacitracin: Gain: 200 g/T in basal ration + bacitracin (4 g/T), 4 weeks; for significance of improved feed efficiencies (level of probability) / significance of improved weight gains (level of probability): 200 g/T, analysis of variance
Description: One hundred 20 day-old broiler cross chicks were weight equalized into 15 groups of eight chicks each and placed in battery brooders. The 40 chick treatment groups (five replicates) were fed the one of the three rations described below for a 4 week period. Weekly measurements of body weights and feed consumption were made by replicate, and these measurements used to calculate weight gain and feed efficiency.
The commercial type broiler starter basal ration which was used in this study was designated as the Basal Ration, and had the following composition:
The preceding basal ration was mixed with bacitracin at a level of 4 g/T as the only growth stimulant to simulate commercial practice. This mixture was designated as the Basal Ration + Bacitracin (4 g/T) and constituted the negative control in this study.
A second ration was prepared by fortifying the Basal Ration + bacitracin described above with the Product from Example I above at a level of 200 g/T, and was designated as Basal Ration + Bacitracin + Product of Example I (200 g/T). A third ration was prepared by fortifying the Basal Ration + bacitracin described above with chlortetracycline (CTC) at a level of 200 g/T, and was designated as Basal Ration + Bacitracin + Chlortetracycline (200 g/T). Chlortetracycline served as the positive control in this test because it had shown strong growth promotion in numerous previous tests at this therapeutic level.
The commercial value of the product of Example I is indicated by the fact that these significant responses were obtained in addition to the growth stimulation provided by the presence of bacitracin in the ration. It is important to note that the negative controls in this example and in Examples VIII and X which follow were characterized by rapid rates of growth. This high plane of growth and feed efficiency performance on the part of the negative controls makes the responses to the test compounds all the more meaningful.
The term "growth promotion" is used herein to describe the beneficial effect of a compound in eliciting a more rapid rate of weight gain when compared to the weight gain of control animals not fed the compound. "Feed efficiency" is a term regularly used in animal husbandry and is a measure of the pounds of feed required to produce a pound of gain in the weight of the animal. A lower mathmatical value for feed efficiency reflects improved performance. […] In this case, as in the case of the weight gain (fifth column), an improved performance is indicated by a higher positive number.

[4] = Growth promotion in chicks at low feed levels, Example VIII (Table II); settings: for Average 4 Week Performance: Feed Efficiency / Average 4 Week Performance: Gain / Improved Response Over Basal Ration: Feed Efficiency / Improved Response Over Basal Ration: Gain: 10 g/T in basal ration, 4 weeks
Description: Day old broiler cross chicks were weight equalized into groups of eight chicks each and were placed in battery brooders. The 32 chick treatment groups (four replicates) were fed one of the five rations described below for a 4 week period. Weekly measurements of body weights and feed consumption were made by replicate, and these measurements used to calculate weight gain and feed efficiency.
The basal ration was the basal ration used in Example VII above. The remaining five rations were obtained by mixing the indicated quantities of bacitracin (4 g/T), chlortetracycline (10 g/T), product of Example I (10 g/T), and product of Example III of U.S. Pat. No. 3,542,784 -- Burch (10 g/T) as growth promotants with the basal ration.

[5] = Growth promotion in chicks, titration dosage, Example IX (Table III)
Description: The concentrations used in this test were 6.25, 12.5, 25, 50, 100, 200 and 400 g of the Product of Example I per ton of the Basal Ration described in Example VII above. The same number and size chick treatment groups were used in this test as in Example VIII above.

[6] = Growth promotion in chicks, Example XI (Table V); settings: for feed efficiency (in words) / growth rate (in words): 25 g/T; for Average 4 Week Performance: Feed Efficiency / Average 4 Week Performance: Gain / Improved Response Over Basal Ration: Feed Efficiency / Improved Response Over Basal Ration: Gain: 4 weeks
Description: as §1
The growth promotion tests described in Example X were repeated with the exception that five replicates of eight chicks each were fed the formulations described in Table V for 4 weeks.

[7] = 25 g/T combined with bacitracin 25 g/T

## O=[N+]([O-])c1ccc(C=Cc2nc(Nc3cccc(O)c3)c3ccccc3n2)o1 [Example II, 2-[2-(5-nitro-2-furyl)vinyl]-4-(m-hydroxyanilino)quinazoline]
[1]
  Average 4 Week Performance: Feed Efficiency: 1.580
  Average 4 Week Performance: Gain: 773.0 g
  Improved Response Over Basal Ration: Feed Efficiency: +3.3%
  Improved Response Over Basal Ration: Gain: +3.9%
  growth rate / feed efficiency, production parameters (in words): moderate improvements
[2]
  Average 4 Week Performance: Feed Efficiency: 1.672
  Average 4 Week Performance: Gain: 696.4 g
  Improved Response Over Basal Ration: Feed Efficiency: +6.3%
  Improved Response Over Basal Ration: Gain: +2.0%

## O=[N+]([O-])c1ccc(C=Cc2nc(Nc3ccc(O)cc3)c3ccccc3n2)o1 [Example I, 2-[2-(5-nitro-2-furyl)vinyl]-4-(p-hydroxyanilino)quinazoline]
[3]
  Average 4 Week Performance: Feed Efficiency: 1.597
  Average 4 Week Performance: Gain: 739.8 gms
  Improved Response Over Basal Ration + Bacitracin: Feed Efficiency: +7.2%
  Improved Response Over Basal Ration + Bacitracin: Gain: +6.5%
  significance of improved feed efficiencies (level of probability): 99.9%
  significance of improved weight gains (level of probability): 99.5%
[4]
  Average 4 Week Performance: Feed Efficiency: 1.671
  Average 4 Week Performance: Gain: 750.7 g
  Improved Response Over Basal Ration: Feed Efficiency: +5.1%
  Improved Response Over Basal Ration: Gain: +4.2%
[4]; 10 g/T, compared with other growth promotants of the test
  growth promotion (in words): greater growth promotion than any of the other growth promotants used in this test
[5]; 6.25 g/T
  Average 4 Week Performance: Feed Efficiency: 1.657
  Average 4 Week Performance: Gain: 714.6 g
  Improved Response Over Basal Ration: Feed Efficiency: +3.4%
  Improved Response Over Basal Ration: Gain: -3.4%
  activity (in words): little or no activity
[5]; 12.5 g/T
  Average 4 Week Performance: Feed Efficiency: 1.652
  Average 4 Week Performance: Gain: 765.3 g
  Improved Response Over Basal Ration: Feed Efficiency: +3.7%
  Improved Response Over Basal Ration: Gain: +3.4%
[5]; 25 g/T
  Average 4 Week Performance: Feed Efficiency: 1.603
  Average 4 Week Performance: Gain: 805.7 g
  Improved Response Over Basal Ration: Feed Efficiency: +6.5%
  Improved Response Over Basal Ration: Gain: +8.9%
[5]; 50 g/T
  Average 4 Week Performance: Feed Efficiency: 1.609
  Average 4 Week Performance: Gain: 785.3 g
  Improved Response Over Basal Ration: Feed Efficiency: +6.2%
  Improved Response Over Basal Ration: Gain: +6.1%
[5]; 100 g/T
  Average 4 Week Performance: Feed Efficiency: 1.663
  Average 4 Week Performance: Gain: 742.7 g
  Improved Response Over Basal Ration: Feed Efficiency: +3.0%
  Improved Response Over Basal Ration: Gain: +0.4%
  weight gain improvement (in words): unexplained absence of weight gain improvement
[5]; 200 g/T
  Average 4 Week Performance: Feed Efficiency: 1.609
  Average 4 Week Performance: Gain: 782.5 g
  Improved Response Over Basal Ration: Feed Efficiency: +6.2%
  Improved Response Over Basal Ration: Gain: +5.8%
[5]; 400 g/T
  Average 4 Week Performance: Feed Efficiency: 1.678
  Average 4 Week Performance: Gain: 751.5 g
  Improved Response Over Basal Ration: Feed Efficiency: +2.2%
  Improved Response Over Basal Ration: Gain: +1.6%
  response (in words): sharp downturn
[5]; in vivo
  level at which noticeable growth promotion began: 12.5 g/T
  optimum concentration (economics and efficacy): 25 g/T
[6]
  feed efficiency (in words): substantial improvement in feed efficiency
  growth rate (in words): moderate improvement in growth rate
[6]; [7]
  combination effect (in words): synergistic effects
  Average 4 Week Performance: Feed Efficiency: 1.666
  Average 4 Week Performance: Gain: 766.4 g
  Improved Response Over Basal Ration: Feed Efficiency: +7.5%
  Improved Response Over Basal Ration: Gain: +4.6%
[6]; 25 g/T in basal ration
  Average 4 Week Performance: Feed Efficiency: 1.677
  Average 4 Week Performance: Gain: 756.1 g
  Improved Response Over Basal Ration: Feed Efficiency: +6.9%
  Improved Response Over Basal Ration: Gain: +3.2%
[1]
  Average 4 Week Performance: Feed Efficiency: 1.623
  Average 4 Week Performance: Gain: 762.1 g
  Improved Response Over Basal Ration: Feed Efficiency: +0.7%
  Improved Response Over Basal Ration: Gain: +2.4%
  growth rate / feed efficiency, production parameters (in words): moderate improvements in production parameters
[2]
  Average 4 Week Performance: Feed Efficiency: 1.706
  Average 4 Week Performance: Gain: 695.3 g
  Improved Response Over Basal Ration: Feed Efficiency: +4.4%
  Improved Response Over Basal Ration: Gain: +1.9%
[2]; 25 g/T, second set of tests
  growth rate / feed efficiency, production parameters (in words): moderate improvements in production parameters

## CN(C)[C@@H]1C(O)=C(C(N)=O)C(=O)[C@@]2(O)C(O)=C3C(=O)c4c(O)ccc(Cl)c4[C@@](C)(O)[C@H]3C[C@@H]12 [Chlortetracycline, reference compound]
[3]
  Average 4 Week Performance: Feed Efficiency: 1.607
  Average 4 Week Performance: Gain: 732.4 gms
  Improved Response Over Basal Ration + Bacitracin: Feed Efficiency: +6.6%
  Improved Response Over Basal Ration + Bacitracin: Gain: +5.5%
  significance of improved feed efficiencies (level of probability): 99.9%
  significance of improved weight gains (level of probability): 99.5%
[4]
  Average 4 Week Performance: Feed Efficiency: 1.745
  Average 4 Week Performance: Gain: 714.2 g
  Improved Response Over Basal Ration: Feed Efficiency: +0.9%
  Improved Response Over Basal Ration: Gain: -0.9%
[6]
  feed efficiency (in words): moderate improvements in feed efficiencies
  growth rate (in words): slight improvements in growth rates
[6]; 25 g/T in basal ration
  Average 4 Week Performance: Feed Efficiency: 1.717
  Average 4 Week Performance: Gain: 752.5 g
  Improved Response Over Basal Ration: Feed Efficiency: +4.7%
  Improved Response Over Basal Ration: Gain: +2.7%
